Test results as given in US6960584B2 (Merck & Co., Inc., priority 2001, dated 2005).

Experiments:
Assay type in all cases: biochemical
PKC (mix of isoforms) = experiment: PKC assay (counter screen); conditions: myelin basic protein substrate; read-out: Counter screens IC50 (μM) PKC
Protocol: Final assay concentrations were as follows: 0.25 mM EGTA, 0.4 mM CaCl, 20 mM Tris pH 7.5, 10 mM MgCl, 1 mM 2-mercaptoethanol, 0.32 mg/ml phosphatidylserine, 0.032 mg/ml diacylglycerol, 10 μM ^33P-ATP, 70 μg/ml MBP, 10 ng/ml PKC, 0.1 mg/ml BSA.
Assays are performed using 96 deep well assay plates. In each assay well 10 μl of solvent control or appropriate inhibitor dilution with 5 μl ^33P-ATP (components #5 and #3) were premixed. In a separate tube, a mixture containing equal volumes of components #1, #2, #4, and #6 was prepared. The assay reaction was initiated by adding 35 μl of the components #1, #2, #4, and #6 mixture to wells containing ^33P-ATP and inhibitor. The liquid in the assay wells was thoroughly mixed and the assay reactions incubated for 20 minutes at room temperature. The reactions were stopped by adding 100 mM EDTA (50 μl) and 100 mM sodium pyrophosphate (50 μl) and mixing. Phosphorylated MBP was collected on PVDF membranes in 96 well filter plates and quantitated by scintillation counting.

delta PH-Akt1 = target: T1, delta PH-Akt1 (Homo sapiens, UniProt P31749); experiment: Akt kinase assay, phosphorylation of GSK3-derived peptide
T1 construct: PCR deletion mutagenesis was done using the full length Akt1 gene in the pS2neo vector as template; biotin tag (from pS2neo vector); made in house; host or cells: Drosophila S2 cells
Protocol: For the expression of a pleckstrin homology domain (PH) deleted (Δ aa 4-129, which includes deletion of a portion of the Akt1 hinge region) version of Akt1, PCR deletion mutagenesis was done using the full length Akt1 gene in the pS2neo vector as template. The PCR was carried out in 2 steps using overlapping internal primers (5′[…]Δ[…] 3′ (SEQ.ID.NO.: 6), and 5′[…]Δ[…] TATTC 3′ (SEQ.ID.NO.: 7)) which encompassed the deletion and 5′ and 3′ flanking primers which encompassed the KpnI site and middle T tag on the 5′ end. The final PCR product was digested with KpnI and SmaI and ligated into the pS2neo full length Akt1 KpnI/Sma I cut vector, effectively replacing the 5′ end of the clone with the deleted version.
This procedure describes a kinase assay which measures phosphorylation of a biotinylated GSK3-derived peptide by human recombinant active Akt/PBK isoforms or Akt/PBK mutants. The ^33P-labeled biotinylated product can be captured and detected using Streptavidin coated Flashplates (NEN LifeSciences) or Streptavidin Membrane Filter Plates (Promega). Alternatively, a GSK3-derived peptide with 2 added lysine residues was used as the substrate and subsequently captured using Phosphocellulose Membrane Filter Plates (Polyfiltronics). […]
(§1) The plates were covered with sealing tape and counted using the Packard TopCount with the appropriate settings for counting [^33P] in Flashplates. […]

PKA catalytic subunit = target: T2, PKA catalytic subunit (Bos taurus, UniProt P00517); experiment: PKA assay (counter screen)
T2 construct: purchased UBI (Upstate Biotechnology) 14-114
Protocol: Each individual PKA assay consists of the following components: • 1) 10 μl 5×PKA assay buffer (200 mM Tris pH7.5, 100 mM MgCl2, 5 mM 2-mercaptoethanol, 0.5 mM EDTA) • 2) 10 μl of a 50 μM stock of Kemptide (Sigma) diluted into water • 3) 10 μl ^33P-ATP (prepared by diluting 1.0 μl ^33P-ATP [10 mCi/ml] into 200 μl of a 50 μM stock of unlabeled ATP) • 4) 10 μl appropriate solvent control dilution or inhibitor dilution • 5) 10 μl of a 70 nM stock of PKA catalytic subunit (UBI catalog #14-114) diluted in 0.5 mg/ml BSA
The final assay concentrations were 40 mM Tris pH 7.5, 20 mM MgCl2, 1 mM 2-mercaptoethanol, 0.1 mM EDTA, 10 μM Kemptide, 10 μM ^33P-ATP, 14 nM PKA and 0.1 mg/ml BSA.
Assays were assembled in 96 deep-well assay plates. Components #3 and #4 were premixed and in a separate tube, a mixture containing equal volumes of components #1, #2, and #5 was prepared. The assay reaction was initiated by adding 30 μl of the components #1, #2, and #5 mixture to wells containing ^33P-ATP and inhibitor. The liquid in the assay wells was mixed and the assay reactions incubated for 20 minutes at room temperature. […]
The enzyme reaction product (phosphorylated Kemptide) was quantitated using p81 phosphocellulose 96 well filter plates (Millipore). […] 30 μl scintillation fluid was added to each well and the filters counted on a TopCount (Packard).

Akt2 = target: T3, Akt2 (Homo sapiens, UniProt P31751); experiment: Akt kinase assay, phosphorylation of GSK3-derived peptide
T3 construct: a middle T tag was added to the 5′ end of the full length Akt2 using the PCR primer; biotin tag (from pS2neo vector); made in house; host or cells: Drosophila S2 cells
From the text: (§2) This procedure describes a kinase assay which measures phosphorylation of a biotinylated GSK3-derived peptide by human recombinant active Akt/PBK isoforms or Akt/PBK mutants. The ^33P-labeled biotinylated product can be captured and detected using Streptavidin coated Flashplates (NEN LifeSciences) or Streptavidin Membrane Filter Plates (Promega). Alternatively, a GSK3-derived peptide with 2 added lysine residues was used as the substrate and subsequently captured using Phosphocellulose Membrane Filter Plates (Polyfiltronics).
(§3) Active human Akt: The following active human Akt isoforms were utilized in the in vitro assays: active human Akt1 (obtained from Upstate Biotechnology, catalog no. 14-276, 15 μg/37 μl (6.76 μM)) or recombinant lipid activated Akt1 (prepared as described in Example 5); Akt2 (prepared as described in Example 5); Akt3 (prepared as described in Example 5); and delta PH-Akt1 (prepared as described in Example 5).
(§4) Akt specific peptide substrate: GSK3α (S21) Peptide #3928, biotin-[…] (SEQ.ID.NO.: 15), FW=1517.8 (obtained from Macromolecular Resources) for Streptavidin Flashplate or Streptavidin Filter Plate detection.
(§5) GSK3α (S21) Peptide #G80613, […] (SEQ.ID.NO.: 14), FW=1547.8 (obtained from Research Genetics) for Phosphocellulose filter plate detection.
(§6) • B. Active Akt (500 nM): Diluent (1× Assay buffer, 10% glycerol, 0.1% β-mercaptoethanol, 1.0 μM microcystin LR and 1.0 mM EDTA) was added to a vial containing 37 μl of active Akt isoform (6.76 μM). Aliquots were flash frozen in liquid N2 and stored at −70° C. • C. […] Procedure for Streptavidin Flash Plate Assay: Step 1: […]
as §1
(§7) The bottom of the plate was sealed with white backing tape, 30 μl/well of Microscint 20 (Packard Instruments, catalog no. 6013621) was added. The top of the plate was sealed with clear sealing tape, and the plate then counted using the Packard TopCount with the appropriate settings for [^33P] with liquid scintillant. […]

active human Akt1 = target: T4, active human Akt1 (Homo sapiens, UniProt P31749); experiment: as above; conditions: GSK3 peptide substrate; read-out: GSK3 Peptide Substrate IC50 (μM) Akt-1
T4 construct: purchased Upstate Biotechnology 14-276
From the text: as §2, §3, §4, §5, §6, §1, §7

Akt3 = target: T5, Akt3 (Homo sapiens, UniProt Q9Y243); experiment: as above
T5 construct: a middle T tag was added to the 5′ end of the full length Akt3 clone using the PCR primer; biotin tag (from pS2neo vector); made in house; host or cells: Drosophila S2 cells
From the text: as §2, §3, §4, §5, §6, §1, §7

T3 sequence (P31751 whole entry): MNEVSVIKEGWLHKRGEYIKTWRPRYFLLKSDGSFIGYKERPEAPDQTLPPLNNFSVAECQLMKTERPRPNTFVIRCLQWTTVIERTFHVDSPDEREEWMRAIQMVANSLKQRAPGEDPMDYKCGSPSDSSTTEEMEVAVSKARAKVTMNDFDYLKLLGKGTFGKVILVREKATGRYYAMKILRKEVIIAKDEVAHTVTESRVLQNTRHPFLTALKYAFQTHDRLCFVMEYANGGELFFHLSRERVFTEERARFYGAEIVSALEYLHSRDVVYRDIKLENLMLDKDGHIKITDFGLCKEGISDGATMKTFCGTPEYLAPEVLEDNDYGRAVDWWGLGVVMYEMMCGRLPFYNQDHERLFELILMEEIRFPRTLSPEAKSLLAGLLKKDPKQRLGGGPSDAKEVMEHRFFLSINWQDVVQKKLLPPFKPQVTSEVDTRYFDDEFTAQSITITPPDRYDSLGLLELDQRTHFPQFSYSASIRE
T4 sequence (P31749 whole entry): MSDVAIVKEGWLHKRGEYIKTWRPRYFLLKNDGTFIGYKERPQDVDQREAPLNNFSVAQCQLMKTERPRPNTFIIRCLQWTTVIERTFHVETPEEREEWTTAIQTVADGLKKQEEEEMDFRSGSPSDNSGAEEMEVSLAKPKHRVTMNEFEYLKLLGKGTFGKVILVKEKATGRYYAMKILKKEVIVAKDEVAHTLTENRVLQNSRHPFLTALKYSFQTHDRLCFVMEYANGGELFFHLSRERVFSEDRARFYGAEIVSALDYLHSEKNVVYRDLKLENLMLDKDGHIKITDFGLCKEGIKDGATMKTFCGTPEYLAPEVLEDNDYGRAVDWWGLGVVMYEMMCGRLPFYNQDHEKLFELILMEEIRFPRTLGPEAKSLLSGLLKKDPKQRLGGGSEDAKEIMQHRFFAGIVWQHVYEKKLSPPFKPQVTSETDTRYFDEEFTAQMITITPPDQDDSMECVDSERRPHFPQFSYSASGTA
T5 sequence (Q9Y243 whole entry): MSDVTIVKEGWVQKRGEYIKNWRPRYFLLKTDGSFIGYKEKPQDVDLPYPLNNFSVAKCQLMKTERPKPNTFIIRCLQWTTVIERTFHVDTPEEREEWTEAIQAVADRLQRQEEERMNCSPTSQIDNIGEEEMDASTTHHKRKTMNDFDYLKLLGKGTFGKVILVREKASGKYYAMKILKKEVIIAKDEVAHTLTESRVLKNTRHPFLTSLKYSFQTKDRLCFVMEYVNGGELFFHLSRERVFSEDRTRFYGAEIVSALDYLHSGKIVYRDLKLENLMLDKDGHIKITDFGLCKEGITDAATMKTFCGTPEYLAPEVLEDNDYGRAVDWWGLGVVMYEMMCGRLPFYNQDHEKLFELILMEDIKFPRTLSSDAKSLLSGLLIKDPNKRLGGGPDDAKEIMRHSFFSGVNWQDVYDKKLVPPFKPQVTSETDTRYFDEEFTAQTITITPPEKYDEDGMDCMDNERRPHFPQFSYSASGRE
T1 sequence (P31749 with tags, fused parts or gaps): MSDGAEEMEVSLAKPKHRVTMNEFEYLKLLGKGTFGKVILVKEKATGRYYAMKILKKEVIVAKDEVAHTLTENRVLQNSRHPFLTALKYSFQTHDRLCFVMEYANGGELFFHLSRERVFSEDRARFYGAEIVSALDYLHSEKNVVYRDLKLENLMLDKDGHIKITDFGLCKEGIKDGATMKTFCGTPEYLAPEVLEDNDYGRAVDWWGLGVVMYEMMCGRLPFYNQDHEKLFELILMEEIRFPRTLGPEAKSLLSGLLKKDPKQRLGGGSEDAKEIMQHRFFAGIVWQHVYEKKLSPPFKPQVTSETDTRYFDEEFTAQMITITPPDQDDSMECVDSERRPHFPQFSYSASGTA

SMILES | IC50 (PKC (mix of isoforms)) | IC50 (delta PH-Akt1) | IC50 (PKA catalytic subunit) | IC50 (Akt2) | IC50 (active human Akt1) | IC50 (Akt3)
OCCOc1nn2c(-c3ccccc3)nnc2cc1-c1ccccc1 [Compound 1, 6-(2-Hydroxyethyl)oxy-3,7-diphenyl-[1,2,4]triazolo[4,3-b]pyridazine] | > 40 µM |  |  |  |  | 
OCCCCOc1nn2c(-c3ccccc3)nnc2cc1-c1ccccc1 [Compound 2] | > 40 µM | > 50 µM | > 40 µM | > 50 µM | 4.65 µM | > 50 µM
